Earlier results on six compounds are cited in article PMC4346355 (Journal of computer-aided molecular design, 2014).

As a reminder, the IC50 is the concentration that gives 50% inhibition. A word on the EC50: it is the concentration at which the effect is half-maximal. One may read the Kd as the free concentration of one partner at which half of the binding sites on the other are occupied at equilibrium, for simple one-to-one binding.

Like-named read-outs stand apart in the source and are kept apart here.

For data set [1], the system named is interaction of LEDGF with integrase.
Data set [2] deals with strand transfer activity of HIV integrase.
Data set [3] deals with HIV-1 infection of MT-4 cells. Particulars: read-out: EC50 HIV-1 infection of MT-4 cells.
The test system of data set [4] is HIV-1 infection of PBMC cells. Particulars: read-out: EC50 HIV-1 infection of PBMC cells.
Data set [5] has as its target HIV integrase catalytic core domain core4H (additional Y131D mutation). The note with it: read-out: SPR KD (core4H).
The target of data set [6] is LEDGF-integrase interaction. The note with it: assay not named.

On to `COc1cccc2c1c(/C(O)=C/C(=O)C(=O)O)cn2Cc1ccc(F)cc1` [CHI-1043], for which, in data set [1], the “inhibition in AlphaScreen assay for binding at the LEDGF site” value is 36 µM. For the same compound, in data set [2], the “inhibition in active site directed strand transfer assay” value is 0.14 µM.

Turning to `CCCC(C(=O)O)c1c(C)nc2ccc(Cl)cc2c1-c1ccccc1` (centres unmarked) [CX04328], the IC50 in data set [1] (assay not given, series assayed in AlphaScreen) was 1370 nM; in data set [2] (read-out: IC50 inhibition of strand transfer activity) it was 19.5 µM. Besides, the EC50 is 2730 nM in data set [3] and 3.45 µM in data set [4].

Regarding `C=CCN(Cc1ccccc1C(=O)NCc1ccccc1)Cc1ccc2c(c1C(=O)O)OCO2` [Compound 3ZSX], in data set [5], the dissociation constant Kd was 1.06 mM.

Take `CN(Cc1ccccc1C(=O)NCC1CCCCC1)Cc1ccc2c(c1C(=O)O)OCO2` [Compound 3ZSY]: in data set [5], the Kd is greater than 2 mM.

Turning to `CC[C@H](C)NC(=O)c1ccccc1CN(C)Cc1ccc2c(c1C(=O)O)OCO2` [Compound 3ZSZ], in data set [5], the dissociation constant (Kd) is greater than 2 mM.

On to `O=C(NCC1CCCCC1)c1cc(S(=O)(=O)N2CCCCC2)cc(O)c1O` [N-(cyclohexylmethyl)-2,3-dihydroxy-5-(piperidin-1-ylsulfonyl) benzamide], for which the IC50 in data set [6] is 8 µM; in data set [2] (read-out: IC50 strand transfer), 19 µM.
